The target of one data set is T1, Acyl-CoA desaturase 1 (Rattus norvegicus, UniProt P07308).
T1 sequence (P07308 whole entry): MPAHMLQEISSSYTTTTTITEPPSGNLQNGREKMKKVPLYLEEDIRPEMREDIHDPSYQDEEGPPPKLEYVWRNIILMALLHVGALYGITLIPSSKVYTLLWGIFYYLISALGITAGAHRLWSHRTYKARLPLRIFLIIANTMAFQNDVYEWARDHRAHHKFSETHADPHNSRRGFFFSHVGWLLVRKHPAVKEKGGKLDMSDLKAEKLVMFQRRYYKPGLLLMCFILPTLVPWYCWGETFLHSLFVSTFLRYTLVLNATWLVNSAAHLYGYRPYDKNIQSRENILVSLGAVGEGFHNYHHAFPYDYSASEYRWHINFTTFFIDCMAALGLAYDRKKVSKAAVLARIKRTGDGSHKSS
The experiment in a line: Inhibition of SCD1 in Sprague-Dawley rat liver microsomes using Stearoyl-[9,10-3H]-CoA as substrate assessed as [3H2O] generation. (In general: Liver microsomes are vesicles of endoplasmic reticulum, rich in cytochrome P450 enzymes.)

The target in data set [1] is T2, Stearoyl-CoA desaturase (Homo sapiens) (UniProt O00767).
T2 sequence (whole entry): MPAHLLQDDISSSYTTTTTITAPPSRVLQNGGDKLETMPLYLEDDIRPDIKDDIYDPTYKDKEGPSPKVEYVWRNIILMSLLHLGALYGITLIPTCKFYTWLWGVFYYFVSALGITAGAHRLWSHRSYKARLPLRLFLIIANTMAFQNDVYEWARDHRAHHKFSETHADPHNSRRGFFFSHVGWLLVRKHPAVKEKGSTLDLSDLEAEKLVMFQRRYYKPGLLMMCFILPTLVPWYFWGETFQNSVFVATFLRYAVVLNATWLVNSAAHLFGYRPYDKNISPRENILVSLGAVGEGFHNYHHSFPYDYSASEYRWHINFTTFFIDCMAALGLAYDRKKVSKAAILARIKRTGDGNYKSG
The experiment in a line: Inhibition of SCD1 in human A431 cells assessed as conversion of 13C-palmitic acid to 13C-palmitoleic acid after 4 hrs by LC/MS analysis. The settings on record: A-431. Type of data set: cell-based.

In data set [2] the target is T3, Acyl-CoA desaturase 1 (Rattus norvegicus) (UniProt P07308).
T3 sequence (whole entry): T1 sequence (P07308 whole entry)
The experiment in a line: Inhibition of SCD1 in Sprague-Dawley rat liver microsomes using Stearoyl-[9,10-3H]-CoA as substrate assessed as [3H2O] generation at 1 uM.

Data set [3] is described as follows: Oral bioavailability in rat at 10 mg/kg. The settings on record: in vivo. Type of data set: ADME, organism-based.
Data set [4] deals with Mus musculus. The experiment in a line: Antiobesity activity in DIO C57BL/6 mouse assessed as decrease in body weight gain at 30 mg/kg, po qd (reference value: 2.06 +/- 0.33 g). It counts as functional.
The nature of data set [5]: Half life in rat at 10 mg/kg, po. Type of data set: ADME, organism-based. Set-up: dose 10 mg/kg, route oral. The note with it: in vivo.
Data set [6] can be described thus: Volume of distribution at steady state in rat at 2 mg/kg, iv. It counts as ADME, organism-based. Details: dose 2 mg/kg, route intravenous. The settings on record: in vivo, read-out: Vdss.
Data set [7] can be described thus: Half life in DIO mouse at 30 mg/kg, po. The note with it: in vivo. Type of data set: ADME, organism-based. Set-up: dose 30 mg/kg, route oral.
For data set [8], the system named is Mus musculus. The experiment in a line: Hepatotoxicity in DIO C57BL/6 mouse assessed as plasma ALT level at 10 mg/kg, po qd after 10 days (reference value: 58 +/- 5 U/L). Type of data set: toxicity, organism-based. Details: dose 10 mg/kg, route oral. The settings on record: in vivo, 240 h.
The test system of data set [9] is Mus musculus. The experiment in a line: Hepatotoxicity in DIO C57BL/6 mouse assessed as plasma AST level at 10 mg/kg, po qd after 10 days (reference value: 99 +/- 9 U/L). Type of data set: toxicity, organism-based. Set-up: dose 10 mg/kg, route oral. The settings on record: in vivo, 240 h.
For data set [10], the system named is Mus musculus. The experiment in a line: Hepatotoxicity in DIO C57BL/6 mouse assessed as plasma AST level at 30 mg/kg, po bid after 10 days (reference value: 99 +/- 9 U/L). It counts as toxicity, organism-based. Details: dose 30 mg/kg, route oral. The settings on record: in vivo, 240 h.
A short description of data set [11]: Clearance in rat at 10 mg/kg, po. The settings on record: in vivo. Set-up: dose 10 mg/kg, route oral. Type of data set: ADME, organism-based.
Data set [12] can be described thus: AUC (24 hrs) in DIO mouse at 30 mg/kg, po. Type of data set: ADME, organism-based. Set-up: time < 24 hr, dose 30 mg/kg, route oral. The settings on record: plasma.
The test system of data set [13] is Mus musculus. The experiment in a line: Hepatotoxicity in DIO C57BL/6 mouse assessed as plasma AST level at 30 mg/kg, po qd after 10 days (reference value: 99 +/- 9 U/L). It counts as toxicity, organism-based. Details: dose 30 mg/kg, route oral. The note with it: in vivo, 240 h.
Data set [14] can be described thus: Cmax in DIO mouse at 30 mg/kg, po. The note with it: in vivo. Type of data set: ADME, organism-based. Set-up: dose 30 mg/kg, route oral.
Data set [15] in a line: AUC (24 hrs) in rat at 2 mg/kg, iv. Type of data set: ADME, organism-based. The note with it: plasma. Details: time < 24 hr, dose 2 mg/kg, route intravenous.
The subject of data set [16] is Mus musculus. The experiment in a line: Antiobesity activity in DIO C57BL/6 mouse assessed as decrease in body weight gain at 10 mg/kg, po qd (reference value: 2.06 +/- 0.33 g). Type of data set: functional.
Data set [17] can be described thus: Cmax in rat at 2 mg/kg, iv. It counts as ADME, organism-based. Set-up: dose 2 mg/kg, route intravenous. The note with it: in vivo.
Data set [18] concerns Mus musculus. The experiment in a line: Antiobesity activity in DIO C57BL/6 mouse assessed as decrease in body weight gain at 30 mg/kg, po bid (reference value: 2.06 +/- 0.33 g). It counts as functional.
Data set [19] in a line: Cmax in rat at 10 mg/kg, po. Type of data set: ADME, organism-based. Details: dose 10 mg/kg, route oral. The settings on record: in vivo.
The nature of data set [20]: Half life in rat at 2 mg/kg, iv. Type of data set: ADME, organism-based. Details: dose 2 mg/kg, route intravenous. The note with it: in vivo.
Data set [21] deals with Mus musculus. The experiment in a line: Hepatotoxicity in DIO C57BL/6 mouse assessed as plasma ALT level at 30 mg/kg, po qd after 10 days (reference value: 58 +/- 5 U/L). It counts as toxicity, organism-based. Set-up: dose 30 mg/kg, route oral. The note with it: in vivo, 240 h.
Data set [22] is described as follows: AUC (24 hrs) in rat at 10 mg/kg, po. Type of data set: ADME, organism-based. Set-up: time < 24 hr, dose 10 mg/kg, route oral. The note with it: plasma.
Data set [23] deals with Mus musculus. The experiment in a line: Hepatotoxicity in DIO C57BL/6 mouse assessed as plasma ALT level at 30 mg/kg, po bid after 10 days (reference value: 58 +/- 5 U/L). Type of data set: toxicity, organism-based. Set-up: dose 30 mg/kg, route oral. The note with it: in vivo, 240 h.
Data set [24] relates to Mus musculus. The experiment in a line: Antiobesity activity in po dosed DIO C57BL/6 mouse assessed as decrease in body weight gain administered as qd/bid. It counts as functional, organism-based.

One may read the IC50 as the concentration at which inhibition is half-maximal. `Cc1csc(NC(=O)N2CCC(n3ccc4ccccc43)CC2)n1`: the concentration for half-maximal inhibition (IC50) on Acyl-CoA desaturase 1 came to 0.538 µM.

With `Cc1csc(NC(=O)N2CCC(N3CCc4ccc(F)cc43)CC2)n1`, in data set [1], the IC50 came to 0.021 µM.

Consider `CNC(=O)c1cnc(NC(=O)N2CCC(N3CCc4ccc(F)cc43)CC2)s1`, for which the IC50 in data set [1] was determined as 0.206 µM.

As a reminder, the inhibition is the drop in the measured response relative to a control, in per cent. Turning to `CNC(=O)c1cccc(NC(=O)N2CCC(N3C(=O)Cc4ccccc43)CC2)c1`, the inhibition in data set [2] was determined as 7%.

Consider `O=C(CO)N1CCc2nc(NC(=O)N3CCC(N4CCc5ccc(F)cc54)CC3)sc2C1`, for which, in data set [1], the IC50 was 0.113 µM.

As to `O=C(Nc1nc2c(s1)CC(O)CC2)N1CCC(N2CCc3ccc(F)cc32)CC1` (stereo not given), the IC50 on Acyl-CoA desaturase 1 was 0.014 µM; in [1] it was 0.001 µM.

On to `NC(=O)c1cnc(NC(=O)N2CCC(N3CCc4ccc(F)cc43)CC2)s1`, for which the IC50 in [1] came to 0.049 µM.

As for `O=C1NCCn2nc(NC(=O)N3CCC(N4CCc5ccc(F)cc54)CC3)cc21`, the IC50 on Acyl-CoA desaturase 1 was 0.018 µM; in data set [1] it was 0.03 µM.

Turning to `O=C(Nc1nc2c(s1)CCCC2)N1CCC(N2CCc3ccc(F)cc32)CC1`, the IC50 in data set [1] was 0.076 µM.

Take `CNC(=O)c1csc(NC(=O)N2CCC(N3CCc4ccc(F)cc43)CC2)n1`: in [2], the inhibition came out at 20%.

With `O=C(Nc1nc2c(s1)COCC2)N1CCC(N2CCc3ccc(F)cc32)CC1`, in [1], the IC50 was found to be 0.017 µM.

As for `CNC(=O)c1cccc(NC(=O)N2CCC(c3c[nH]c4ccccc34)CC2)c1`, the inhibition in [2] is 15%.

Consider `Cc1cnc(NC(=O)N2CCC(N3CCc4ccc(F)cc43)CC2)s1`, for which the IC50 in data set [1] came out at 0.108 µM.

For `Cc1csc(NC(=O)N2CCC(N3CCc4ccccc43)CC2)n1`, the IC50 at Acyl-CoA desaturase 1 worked out at 0.153 µM.

With `O=C(Nc1nc(CCO)cs1)N1CCC(N2CCc3ccc(F)cc32)CC1`, the IC50 in data set [1] amounted to 0.018 µM.

A word on the bioavailability: it is dose-corrected exposure relative to a reference, in per cent. A low value points to poor availability. As usually defined, the half-life is the time needed for the level to fall by half in the phase considered. A higher half-life goes with slow decline. By CL/F is commonly meant the apparent clearance, not corrected for the fraction that reaches the circulation. What is called AUC is the area under the concentration-time curve, a measure of exposure. Broadly, the Cmax is the maximum level reached in the sampled fluid or tissue. On to `Cc1csc(NC(=O)N2CCC(c3noc4ccc(F)cc34)CC2)n1`, for which the bioavailability in [3] came out at 36.9%. Besides, the Activity in the data set on Mus musculus [4] was determined as 0.01 g; with Mus musculus [8], 57 U/L; in the data set with Mus musculus [9] it was 89 U/L; with Mus musculus [10], 102 U/L; in the data set on Mus musculus [13] it was 93 U/L; with Mus musculus [16] it was 0 g. Besides, the Activity with Mus musculus [18] is -0.69 g; in the data set with Mus musculus [21], 68 U/L; in the data set on Mus musculus [23], 41 U/L; in the data set on Mus musculus [24], “Dose-dependent effect”. Besides, the half-life in data set [5] is 6.3 h; in [7], 3.1 h; in data set [20] it was 3.8 h. Besides, the Vd in data set [6] was determined as 0.19 L/kg. This molecule also yielded a CL/F in [11] of 0.5 mL/min/kg. Besides, the values for the AUC at 24 h in [12], in data set [15] and in data set [22] were 169 µg·h/mL, 49.8 µg·h/mL and 118 µg·h/mL, respectively. In addition, the Cmax amounted to 14900 ng/mL in data set [14], 9200 ng/mL in data set [17] and 8800 ng/mL in data set [19]. Further, in data set [1], the IC50 came out at 0.054 µM.

In the case of `CC(=O)N1CCc2nc(NC(=O)N3CCC(N4CCc5ccc(F)cc54)CC3)sc2C1`, the inhibition in data set [2] worked out at 46%.

Turning to `O=C(Nc1ncc(CO)s1)N1CCC(N2CCc3ccc(F)cc32)CC1`, the IC50 in [1] stood at 0.154 µM.

On to `O=C(Nc1nc2c(s1)CNCC2)N1CCC(N2CCc3ccc(F)cc32)CC1`, for which the IC50 in data set [1] came out at 0.016 µM.

Take `O=C(Nc1ncc(CCO)s1)N1CCC(N2CCc3ccc(F)cc32)CC1`: the IC50 in [1] is 0.006 µM.

In the case of `O=C(Nc1nc(CO)cs1)N1CCC(N2CCc3ccc(F)cc32)CC1`, the IC50 in [1] was 0.042 µM.

Values taken from ChEMBL document CHEMBL3091436, “4-Bicyclic heteroaryl-piperidine derivatives as potent, orally bioavailable Stearoyl-CoA desaturase-1 (SCD1) inhibitors. Part 1: urea-based analogs” (Bioorg Med Chem Lett, 2013).
